Measurements published in patent publication US10738051B2, “β-lactamase inhibitors” (priority 2016, dated 2020).

Legend:
Assay in all cases: In vitro synergistic inhibitory concentration (SIC) assay
Type in all cases: cell-based
[1] = tested on: K. pneumoniae ATCC BAA-1899 (KPC); settings: Klebsiella pneumoniae, ATCCBAA1899, 37° C. 20 hours, read-out: minimum inhibitory concentration, used alone
Procedure: (§1) 2) 30 μL dimethyl sulfoxide was added to columns 2-12 of the 96-V well plate. 60 μL prepared ceftazidime was added to column 1. 30 μL ceftazidime was transferred from column 1 to column 2 and mixed with a pipette. The same operation was continued until column 11, and 30 μL of the mixture in column 11 was discarded. This was the compound mother plate.
(§2) Mix the liquid in the mother plate with a pipette.
(§3) 4) One day before the experiment, the bacterial glycerol stock which was stored in a −80° C. refrigerator was streaked on a trypticase soy agar plate (TSA), and the plate was incubated in a 37° C. incubator overnight. On the day of the experiment, the monoclonal bacterial was suspended in physiological saline and the turbidity of which was adjusted to 0.5 McFarland standard, corresponding to 1×10^8 CFU/ml. This suspension was diluted 100-fold to 1×10^6 CFU/mL with caton-adjusted Mueller-Hnton broth (CAMHB), which was used as an inoculation fluid.
(§4) 5) a 96-U plate was used as a test plate. Firstly, adding 98 μL CAMHB to each well of the test plate and transferring 2 μL solution in the mother plate to the test plate. 100 μL inoculation fluid was added to each well of the test plate.
(§5) 6) The test plate was incubated at 37° C. for 20 hours.
(§6) The above-mentioned method was also used to determine the antibacterial activity of the test compound or the antibiotic when used alone.

[2] = tested on: K. pneumoniae ATCC BAA-2472 (NDM-1); settings: Klebsiella pneumoniae, ATCCBAA2472, 37° C. 20 hours, read-out: minimum inhibitory concentration, used alone
Procedure: as §1, §2, §3, §4, §5, §6

[3] = tested on: K. pneumoniae ATCC 51504 (TEM-10); settings: Klebsiella pneumoniae, ATCC51504, 37° C. 20 hours, read-out: minimum inhibitory concentration, used alone
Procedure: as §1, §2, §3, §4, §5, §6

[4] = tested on: E. coli ATCC BAA-2523 (OXA-48); settings: Escherichia coli, ATCCBAA2523, 37° C. 20 hours, read-out: minimum inhibitory concentration, used alone
Procedure: as §1, §2, §3, §4, §5, §6

[5] = tested on: K. pneumoniae ATCC BAA-205 (TEM-1/SHV-1/SHV-12); settings: Klebsiella pneumoniae, ATCCBAA205, 37° C. 20 hours, read-out: minimum inhibitory concentration, used alone
Procedure: as §1, §2, §3, §4, §5, §6

[6] = tested on: K. pneumoniae ATCC BAA-2524 (OXA-48); settings: Klebsiella pneumoniae, ATCCBAA2524, 37° C. 20 hours, read-out: minimum inhibitory concentration, used alone
Procedure: as §1, §2, §3, §4, §5, §6

[7] = tested on: E. cloacae ATCC BAA-1143 (AmpC); settings: Enterobacter cloacae, ATCCBAA1143, 37° C. 20 hours, read-out: minimum inhibitory concentration, used alone
Procedure: as §1, §2, §3, §4, §5, §6

[8] = tested on: K. pneumoniae ATCC BAA-1144 (AmpC); settings: Klebsiella pneumoniae, ATCCBAA1144, 37° C. 20 hours, read-out: minimum inhibitory concentration, used alone
Procedure: as §1, §2, §3, §4, §5, §6

`N=C(N)NOCCONC(=O)[C@@H]1CC[C@@H]2CN1C(=O)N2OS(=O)(=O)O` [Compound 1] was tested, and the MIC [1] was greater than 128 µg/mL, the MIC [2] was greater than 128 µg/mL and the MIC [3] was greater than 128 µg/mL. For the same compound, the MIC [4] was 8 µg/mL, the MIC [5] was 128 µg/mL and the MIC [6] was greater than 128 µg/mL. For the same compound, the MIC [7] was 16 µg/mL and the MIC [8] was 128 µg/mL.
